Experimental data from PubChem BioAssay (NCI).
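48-hour exposure; five concentrations; linearly interpolated endpoints. The concentration for 50% growth inhibition is given as GI50. TGI denotes the concentration required for complete inhibition of growth.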

How the values were obtained:
Assay in all cases: NCI-60 cell line screen, 48 h
HT29 colon = tested on: HT29 colon
SNB-75 CNS = tested on: SNB-75 CNS
RXF 393 renal = tested on: RXF 393 renal
NCI-H23 lung = tested on: NCI-H23 lung
OVCAR-3 ovarian = tested on: OVCAR-3 ovarian
A498 renal = tested on: A498 renal
SF-268 CNS = tested on: SF-268 CNS
BT-549 breast = tested on: BT-549 breast
HOP-62 NSCLC = tested on: HOP-62 NSCLC
SK-MEL-2 melanoma = tested on: SK-MEL-2 melanoma
COLO 205 colon = tested on: COLO 205 colon
786-0 renal = tested on: 786-0 renal
DU-145 prostate = tested on: DU-145 prostate
MDA-MB-435 = tested on: MDA-MB-435
SK-MEL-28 melanoma = tested on: SK-MEL-28 melanoma
TK-10 renal = tested on: TK-10 renal
HCC-2998 colon = tested on: HCC-2998 colon
PC-3 prostate = tested on: PC-3 prostate
HS 578T breast = tested on: HS 578T breast
HCT-15 colon = tested on: HCT-15 colon
KM12 colon = tested on: KM12 colon
A549 NSCLC = tested on: A549 NSCLC
CCRF-CEM leukemia = tested on: CCRF-CEM leukemia
SF-295 CNS = tested on: SF-295 CNS
SK-OV-3 ovarian = tested on: SK-OV-3 ovarian
RPMI-8226 leukemia = tested on: RPMI-8226 leukemia
NCI-H460 lung = tested on: NCI-H460 lung
U251 CNS = tested on: U251 CNS
SK-MEL-5 melanoma = tested on: SK-MEL-5 melanoma
OVCAR-5 ovarian = tested on: OVCAR-5 ovarian
SW-620 colon = tested on: SW-620 colon
NCI/ADR-RES ovarian = tested on: NCI/ADR-RES ovarian
SNB-19 CNS = tested on: SNB-19 CNS
M14 melanoma = tested on: M14 melanoma
SR leukemia = tested on: SR leukemia
HCT-116 colon = tested on: HCT-116 colon
MALME-3M melanoma = tested on: MALME-3M melanoma
SF-539 CNS = tested on: SF-539 CNS
NCI-H226 lung = tested on: NCI-H226 lung
MCF7 breast = tested on: MCF7 breast
ACHN renal = tested on: ACHN renal
HOP-92 NSCLC = tested on: HOP-92 NSCLC
UACC-62 melanoma = tested on: UACC-62 melanoma
OVCAR-8 ovarian = tested on: OVCAR-8 ovarian
T-47D breast = tested on: T-47D breast
UO-31 renal = tested on: UO-31 renal
HL-60(TB) leukemia = tested on: HL-60(TB) leukemia
IGROV1 ovarian = tested on: IGROV1 ovarian
OVCAR-4 ovarian = tested on: OVCAR-4 ovarian
MDA-MB-231 breast = tested on: MDA-MB-231 breast
EKVX NSCLC = tested on: EKVX NSCLC
SN12C renal = tested on: SN12C renal
CAKI-1 renal = tested on: CAKI-1 renal
LOX IMVI melanoma = tested on: LOX IMVI melanoma
MOLT-4 leukemia = tested on: MOLT-4 leukemia
UACC-257 melanoma = tested on: UACC-257 melanoma

Work on C#C[C@]1(O)CC[C@H]2[C@@H]3CC=C4c5sc(Nc6ncccc6C)nc5CC[C@]4(C)[C@H]3CC[C@@]21C yielded a GI50 (HT29 colon) of 1600 nM, a TGI (HT29 colon) of 3990 nM and a GI50 (SNB-75 CNS) of 568 nM. For the same molecule, the TGI (SNB-75 CNS) was 5440 nM, the GI50 (RXF 393 renal) was 150 nM and the TGI (RXF 393 renal) was 456 nM. It also gave a GI50 (NCI-H23 lung) of 1770 nM, a TGI (NCI-H23 lung) of 6240 nM and a GI50 (OVCAR-3 ovarian) of 2040 nM. The TGI (OVCAR-3 ovarian) was 5290 nM, the GI50 (A498 renal) was 454 nM and the TGI (A498 renal) was 1910 nM. The GI50 (SF-268 CNS) was 1860 nM, the TGI (SF-268 CNS) was 7300 nM and the GI50 (BT-549 breast) was 1170 nM. The TGI (BT-549 breast) was 4120 nM, the GI50 (HOP-62 NSCLC) was 1350 nM and the TGI (HOP-62 NSCLC) was 3310 nM. For the same molecule, the GI50 (SK-MEL-2 melanoma) was 1280 nM, the TGI (SK-MEL-2 melanoma) was 4350 nM and the GI50 (COLO 205 colon) was 1800 nM. For the same molecule, the TGI (COLO 205 colon) was 3900 nM, the GI50 (786-0 renal) was 355 nM and the TGI (786-0 renal) was 1430 nM. For the same molecule, the GI50 (DU-145 prostate) was 2240 nM, the TGI (DU-145 prostate) was 7460 nM and the GI50 (MDA-MB-435) was 2080 nM. For the same molecule, the TGI (MDA-MB-435) was 6390 nM, the GI50 (SK-MEL-28 melanoma) was 425 nM and the TGI (SK-MEL-28 melanoma) was 1640 nM. For the same molecule, the GI50 (TK-10 renal) was 2560 nM, the TGI (TK-10 renal) was 6820 nM and the GI50 (HCC-2998 colon) was 2530 nM. It also gave a TGI (HCC-2998 colon) of 6710 nM, a GI50 (PC-3 prostate) of 603 nM and a TGI (PC-3 prostate) of 8670 nM. It also gave a GI50 (HS 578T breast) of 424 nM, a TGI (HS 578T breast) of 2300 nM and a GI50 (HCT-15 colon) of 1360 nM. The TGI (HCT-15 colon) was 3000 nM, the GI50 (KM12 colon) was 1660 nM and the TGI (KM12 colon) was 4550 nM. For the same molecule, the GI50 (A549 NSCLC) was 2050 nM, the TGI (A549 NSCLC) was 12800 nM and the GI50 (CCRF-CEM leukemia) was 1010 nM. It also gave a TGI (CCRF-CEM leukemia) of 4460 nM, a GI50 (SF-295 CNS) of 246 nM and a TGI (SF-295 CNS) of 694 nM. The GI50 (SK-OV-3 ovarian) was 1850 nM, the TGI (SK-OV-3 ovarian) was 4660 nM and the GI50 (RPMI-8226 leukemia) was 264 nM. It also gave a TGI (RPMI-8226 leukemia) of 681 nM, a GI50 (NCI-H460 lung) of 1270 nM and a TGI (NCI-H460 lung) of 2860 nM. It also gave a GI50 (U251 CNS) of 753 nM, a TGI (U251 CNS) of 3340 nM and a GI50 (SK-MEL-5 melanoma) of 1570 nM. For the same molecule, the TGI (SK-MEL-5 melanoma) was 2960 nM, the GI50 (OVCAR-5 ovarian) was 1830 nM and the TGI (OVCAR-5 ovarian) was 4390 nM. The GI50 (SW-620 colon) was 1530 nM, the TGI (SW-620 colon) was 3100 nM and the GI50 (NCI/ADR-RES ovarian) was 1810 nM. For the same molecule, the TGI (NCI/ADR-RES ovarian) was 6150 nM, the GI50 (SNB-19 CNS) was 1880 nM and the TGI (SNB-19 CNS) was 6580 nM. It also gave a GI50 (M14 melanoma) of 1290 nM, a TGI (M14 melanoma) of 3430 nM and a GI50 (SR leukemia) of 493 nM. The TGI (SR leukemia) was 2460 nM, the GI50 (HCT-116 colon) was 1040 nM and the TGI (HCT-116 colon) was 2510 nM. For the same molecule, the GI50 (MALME-3M melanoma) was 1780 nM, the TGI (MALME-3M melanoma) was 4850 nM and the GI50 (SF-539 CNS) was 335 nM. It also gave a TGI (SF-539 CNS) of 1310 nM, a GI50 (NCI-H226 lung) of 1490 nM and a TGI (NCI-H226 lung) of 3400 nM. For the same molecule, the GI50 (MCF7 breast) was 1050 nM, the TGI (MCF7 breast) was 3150 nM and the GI50 (ACHN renal) was 1850 nM. For the same molecule, the TGI (ACHN renal) was 10700 nM, the GI50 (HOP-92 NSCLC) was 2310 nM and the TGI (HOP-92 NSCLC) was 5990 nM. It also gave a GI50 (UACC-62 melanoma) of 1550 nM, a TGI (UACC-62 melanoma) of 3430 nM and a GI50 (OVCAR-8 ovarian) of 1990 nM. For the same molecule, the TGI (OVCAR-8 ovarian) was 13600 nM, the GI50 (T-47D breast) was 2110 nM and the TGI (T-47D breast) was 8520 nM. It also gave a GI50 (UO-31 renal) of 1230 nM, a TGI (UO-31 renal) of 2820 nM and a GI50 (HL-60(TB) leukemia) of 1400 nM. For the same molecule, the TGI (HL-60(TB) leukemia) was 3760 nM, the GI50 (IGROV1 ovarian) was 2450 nM and the TGI (IGROV1 ovarian) was 8960 nM. For the same molecule, the GI50 (OVCAR-4 ovarian) was 1900 nM, the TGI (OVCAR-4 ovarian) was 11300 nM and the GI50 (MDA-MB-231 breast) was 1650 nM. The TGI (MDA-MB-231 breast) was 4390 nM, the GI50 (EKVX NSCLC) was 1340 nM and the TGI (EKVX NSCLC) was 9530 nM. The GI50 (SN12C renal) was 1830 nM, the TGI (SN12C renal) was 4160 nM and the GI50 (CAKI-1 renal) was 1350 nM. For the same molecule, the TGI (CAKI-1 renal) was 3280 nM, the GI50 (LOX IMVI melanoma) was 1320 nM and the TGI (LOX IMVI melanoma) was 2720 nM. For the same molecule, the GI50 (MOLT-4 leukemia) was 561 nM, the TGI (MOLT-4 leukemia) was 2700 nM and the GI50 (UACC-257 melanoma) was 1640 nM. It also gave a TGI (UACC-257 melanoma) of 4290 nM.
